Measured values taken from patent US12043599B2, “Herbicidal compounds” (SYNGENTA PARTICIPATIONS AG, priority 2018, dated 2024).

Legend:
Format in all cases: in vivo
Settings in all cases: 250 g/h, evaluated after 13 days
Setaria faberi (SETFA) [1] = experiment: Post-emergence herbicidal glasshouse test, percentage damage
How it was run: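 Percentage damage was scored 13 days after treatment on a five-point scale (1=0-19% to 5=80-100%). Treatments were post-emergence sprays on 8-day-old wheat, barley and SETFA plants in a glasshouse (24/16 °C day/night, 14 h light, 65% humidity), using acetone/water 50:50 with 0.5% Tween 20 at the stated rates. Wheat additionally received cloquintocet-mexyl safener at 50 g/ha.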

Setaria faberi (SETFA) [2] = experiment: Pre-emergence herbicidal glasshouse test, percentage damage
How it was run: (§1)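 Glasshouse, 24/16 °C, 14 h photoperiod, 65% humidity. Sprayed at 250 g/h pre- (1 d) or post-emergence (8 d); evaluated 13 d after spraying, 5-point damage scale.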

[3] = test system: Echinochloa crus-galli (ECHCG); experiment: as above
How it was run: as §1

Avena fatua (AVEFA) [4] = experiment: as above
How it was run: as §1

[5] = test system: Alopecurus myosuroides (ALOMY); experiment: as above
How it was run: as §1

Lolium perenne (LOLPE) [6] = experiment: as above
How it was run: as §1

[7] = test system: Echinochloa crus-galli (ECHCG); experiment: Post-emergence herbicidal glasshouse test, percentage damage
How it was run: as §1

Avena fatua (AVEFA) [8] = experiment: as above
How it was run: as §1

[9] = test system: Alopecurus myosuroides (ALOMY); experiment: as above
How it was run: as §1

Lolium perenne (LOLPE) [10] = experiment: as above
How it was run: as §1

Structure (SMILES) | SETFA POST percentage damage (five point scale) (Setaria faberi (SETFA) [1]) | SETFA PRE percentage damage (five point scale) (Setaria faberi (SETFA) [2]) | ECHCG PRE percentage damage (five point scale) [3] | AVEFA PRE percentage damage (five point scale) (Avena fatua (AVEFA) [4]) | ALOMY PRE percentage damage (five point scale) [5] | LOLPE PRE percentage damage (five point scale) (Lolium perenne (LOLPE) [6]) | ECHCG POST percentage damage (five point scale) [7] | AVEFA POST percentage damage (five point scale) (Avena fatua (AVEFA) [8]) | ALOMY POST percentage damage (five point scale) [9] | LOLPE POST percentage damage (five point scale) (Lolium perenne (LOLPE) [10])
CC#Cc1cc(C)c(C2C(=O)CC3(CCN(C(=O)C4=NOCC4)CC3)CC2=O)c(C)c1 [Compound A88] | 5 (5=80-100%) | 5 (5=80-100%) | 5 (5=80-100%) | 5 (5=80-100%) | 5 (5=80-100%) | 5 (5=80-100%) | 5 (5=80-100%) | 5 (5=80-100%) | 5 (5=80-100%) | 5 (5=80-100%)
CC#Cc1cc(C)c(C2C(=O)CC3(CCN(C(=O)c4ncccn4)CC3)CC2=O)c(C)c1 [Compound A19] | 5 (5=80-100%) | 5 (5=80-100%) | 5 (5=80-100%) | 5 (5=80-100%) | 5 (5=80-100%) | 5 (5=80-100%) | 5 (5=80-100%) | 5 (5=80-100%) | 5 (5=80-100%) | 5 (5=80-100%)
CC#Cc1cc(C)c(C2C(=O)CC3(CCN(C(=O)[C@H](C)O)CC3)CC2=O)c(C)c1 [Compound A155] | 5 (5=80-100%) | 5 (5=80-100%) | 5 (5=80-100%) | 5 (5=80-100%) | 5 (5=80-100%) | 5 (5=80-100%) | 5 (5=80-100%) | 5 (5=80-100%) | 5 (5=80-100%) | 5 (5=80-100%)
CC#Cc1cc(C)c(C2C(=O)CC3(CCN(C(=O)[C@H]4COCCO4)CC3)CC2=O)c(C)c1 [Compound A173] | 5 (5=80-100%) | 5 (5=80-100%) | 5 (5=80-100%) | 5 (5=80-100%) | 5 (5=80-100%) | 5 (5=80-100%) | 5 (5=80-100%) | 5 (5=80-100%) | 5 (5=80-100%) | 5 (5=80-100%)
CC#Cc1cc(C)c(C2C(=O)CC3(CCN(C(=O)CCC#N)CC3)CC2=O)c(C)c1 [Compound A198, 4-[9-(2,6-dimethyl-4-prop-1-ynyl-phenyl)-8,10-dioxo-3-azaspiro[5.5]undecan-3-yl]-4-oxo-butanenitrile] | 5 (5=80-100%) | 5 (5=80-100%) | 5 (5=80-100%) | 4 (4=60-79%) | 5 (5=80-100%) | 5 (5=80-100%) | 5 (5=80-100%) | 5 (5=80-100%) | 5 (5=80-100%) | 5 (5=80-100%)
CC#Cc1cc(C)c(C2C(=O)CC3(CCN(C(=O)CC4OCCO4)CC3)CC2=O)c(C)c1 [Compound A151] | 5 (5=80-100%) | 5 (5=80-100%) | 5 (5=80-100%) | 5 (5=80-100%) | 5 (5=80-100%) | 5 (5=80-100%) | 5 (5=80-100%) | 5 (5=80-100%) | 5 (5=80-100%) | 5 (5=80-100%)
CC#Cc1cc(C)c(C2C(=O)CC3(CCN(C(=O)Cc4cccnn4)CC3)CC2=O)c(C)c1 [Compound A103] | 5 (5=80-100%) | 5 (5=80-100%) | 5 (5=80-100%) | 4 (4=60-79%) | 4 (4=60-79%) | 4 (4=60-79%) | 5 (5=80-100%) | 5 (5=80-100%) | 5 (5=80-100%) | 5 (5=80-100%)
CC#Cc1cc(C)c(C2=C(OC(=O)OC)CC3(CCN(C(=O)NC(C)(C)C)CC3)CC2=O)c(C)c1 [Compound P13] | 5 (5=80-100%) | 5 (5=80-100%) | 5 (5=80-100%) | 5 (5=80-100%) | 5 (5=80-100%) | 5 (5=80-100%) | 5 (5=80-100%) | 5 (5=80-100%) | 5 (5=80-100%) | 5 (5=80-100%)
CC#Cc1cc(C)c(C2=C(OC(=O)OC)CC3(CCN(C(=O)COCC)CC3)CC2=O)c(C)c1 [Compound P51] | 5 (5=80-100%) | 5 (5=80-100%) | 5 (5=80-100%) | 5 (5=80-100%) | 5 (5=80-100%) | 5 (5=80-100%) | 5 (5=80-100%) | 5 (5=80-100%) | 5 (5=80-100%) | 5 (5=80-100%)
CC#Cc1cc(C)c(C2C(=O)CC3(CCN(C(=O)COCCC)CC3)CC2=O)c(C)c1 [Compound A186] | 5 (5=80-100%) | 5 (5=80-100%) | 5 (5=80-100%) | 5 (5=80-100%) | 5 (5=80-100%) | 5 (5=80-100%) | 5 (5=80-100%) | 5 (5=80-100%) | 5 (5=80-100%) | 5 (5=80-100%)
CC#Cc1cc(C)c(C2=C(OC(=O)OC)CC3(CCN(C(=O)C(C)(C)C#N)CC3)CC2=O)c(C)c1 [Compound P27] | 5 (5=80-100%) | 5 (5=80-100%) | 5 (5=80-100%) | 5 (5=80-100%) | 5 (5=80-100%) | 5 (5=80-100%) | 5 (5=80-100%) | 5 (5=80-100%) | 5 (5=80-100%) | 5 (5=80-100%)
CC#Cc1cc(C)c(C2C(=O)CC3(CCN(S(=O)(=O)c4ccccn4)CC3)CC2=O)c(C)c1 [Compound A70] | 5 (5=80-100%) | 5 (5=80-100%) | 5 (5=80-100%) | 5 (5=80-100%) | 5 (5=80-100%) | 5 (5=80-100%) | 5 (5=80-100%) | 5 (5=80-100%) | 5 (5=80-100%) | 5 (5=80-100%)
CC#Cc1cc(C)c(C2C(=O)CC3(CCN(C(=O)COC(C)(C)C)CC3)CC2=O)c(C)c1 [Compound A185] | 5 (5=80-100%) | 5 (5=80-100%) | 5 (5=80-100%) | 4 (4=60-79%) | 5 (5=80-100%) | 5 (5=80-100%) | 5 (5=80-100%) | 5 (5=80-100%) | 5 (5=80-100%) | 5 (5=80-100%)
CC#Cc1cc(C)c(C2C(=O)CC3(CCN(C(=O)CCn4cccn4)CC3)CC2=O)c(C)c1 [Compound A195] | 5 (5=80-100%) | 5 (5=80-100%) | 2 (2=20-39%) | 5 (5=80-100%) | 4 (4=60-79%) | 5 (5=80-100%) | 5 (5=80-100%) | 5 (5=80-100%) | 5 (5=80-100%) | 5 (5=80-100%)
